This is an account of results in US20070010671A1, “Novel quinazoline derivatives and methods of treatment related to the use thereof” (priority 2003, published 2007).

This experiment has as its target MCH receptor (Homo sapiens, UniProt Q99705). Description: High throughput functional screening FLIPR/FDSS6000: inhibition of MCH-evoked intracellular Ca2+ changes. Type of experiment: cell-based. The conditions noted are these: for IC50: read-out: class; for class: class by percent of control at 10^-7 M or IC50. An outline of the steps: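 Antagonism is measured as inhibition of the intracellular calcium rise triggered by 50 nM MCH in cells bearing a constitutively active, non-endogenous form of the receptor. Cells are dye-loaded with Fluo4-AM and exposed to compound for 3 min at 37° C before agonist addition.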

Setting [1] is: class by percent of control at 10^-7 M or by IC50.
Setting [2] is: class by percent of control at 10^−7 M or by IC50.

Like-named read-outs stand apart in the source and are kept apart here. Bounds are passed on as bounds.

In the case of `CN(C)c1nc(N[C@H]2CC[C@@H](NC(=O)Oc3ccc(Br)cc3)CC2)nc2ccccc12` [compound 850], the IC50 under setting [1] was above 200 nM.

As to `COc1ccccc1OC(=O)N[C@H]1CC[C@@H](Nc2nc(N(C)C)c3ccccc3n2)CC1` [compound 851], the IC50 under setting [1] is above 200 nM. Same read-out and setting: the value for `COCCOC(=O)N[C@H]1CC[C@@H](Nc2nc(N(C)C)c3ccccc3n2)CC1` [compound 852] was above 200 nM; that for `CCCCCCCCOC(=O)N[C@H]1CC[C@@H](Nc2nc(N(C)C)c3ccccc3n2)CC1` [compound 853] was above 200 nM. As for `CCOC(=O)N[C@H]1CC[C@@H](Nc2nc(N(C)C)c3ccccc3n2)CC1` [compound 854], under setting [1], the IC50 is above 200 nM. Consider `CN(C)c1nc(N[C@H]2CC[C@@H](NC(=O)OCc3ccc([N+](=O)[O-])cc3)CC2)nc2ccccc12` [compound 855], for which, under setting [1], the IC50 is below 50 nM.

In the case of `CN(C)c1nc(N[C@H]2CC[C@@H](NC(=O)Oc3ccc4ccccc4c3)CC2)nc2ccccc12` [compound 856], the IC50 under setting [1] is above 200 nM. On the same count and under the same terms, the same measure for `C=CCOC(=O)N[C@H]1CC[C@@H](Nc2nc(N(C)C)c3ccccc3n2)CC1` [compound 857]: above 200 nM.

In the case of `CN(C)c1nc(N[C@H]2CC[C@@H](NC(=O)OCc3ccccc3)CC2)nc2ccccc12` [compound 858], the IC50 under setting [1] lay within 50 to 200 nM.

As to `CN(C)c1nc(N[C@H]2CC[C@@H](NC(=O)Oc3ccccc3)CC2)nc2ccccc12` [compound 859], under setting [1], the IC50 was above 200 nM. For the compound `CC(C)[C@@H]1CC[C@@H](C)C[C@H]1OC(=O)N[C@H]1CC[C@@H](Nc2nc(N(C)C)c3ccccc3n2)CC1` [compound 860], under setting [1], the IC50 was above 200 nM.

`Cc1ccc(OC(=O)N[C@H]2CC[C@@H](Nc3nc(N(C)C)c4ccccc4n3)CC2)cc1` [compound 861]: under setting [1], the IC50 was above 200 nM.

As for `COC(=O)N[C@H]1CC[C@@H](Nc2nc(N(C)C)c3ccccc3n2)CC1` [compound 862], the IC50 under setting [1] is above 200 nM. Same read-out and setting: the value for `CN(C)c1nc(N[C@H]2CC[C@@H](NC(=O)OCc3ccccc3Cl)CC2)nc2ccccc12` [compound 863] was 50 to 200 nM; that for `CN(C)c1nc(N[C@H]2CC[C@@H](NC(=O)OCC3c4ccccc4-c4ccccc43)CC2)nc2ccccc12` [compound 864] was above 200 nM; that for `CN(C)c1nc(N[C@H]2CC[C@@H](NC(=O)OCC(Cl)(Cl)Cl)CC2)nc2ccccc12` [compound 865] was above 200 nM.

Take `CN(C)c1nc(N[C@H]2CC[C@@H](CNC(=O)OCCOCc3ccccc3)CC2)nc2ccccc12` [compound 866]: under setting [1], the IC50 was above 200 nM. Same read-out and setting: the same measure for `CN(C)c1nc(N[C@H]2CC[C@@H](CNC(=O)OCC(C)(C)C)CC2)nc2ccccc12` [compound 867]: above 200 nM; for `COc1cc(COC(=O)NC[C@H]2CC[C@@H](Nc3nc(N(C)C)c4ccccc4n3)CC2)c([N+](=O)[O-])cc1OC` [compound 868]: above 200 nM. Same read-out and setting: the same measure for `CN(C)c1nc(N[C@H]2CC[C@@H](CNC(=O)Oc3cccc(C(F)(F)F)c3)CC2)nc2ccccc12` [compound 869]: above 200 nM; for `CN(C)c1nc(N[C@H]2CC[C@@H](CNC(=O)Oc3ccc(Br)cc3)CC2)nc2ccccc12` [compound 870]: above 200 nM. The same measure, in the same setting: the value for `COc1ccccc1OC(=O)NC[C@H]1CC[C@@H](Nc2nc(N(C)C)c3ccccc3n2)CC1` [compound 871] was above 200 nM; that for `COCCOC(=O)NC[C@H]1CC[C@@H](Nc2nc(N(C)C)c3ccccc3n2)CC1` [compound 872] was above 200 nM.

With `CCCCCCCCOC(=O)NC[C@H]1CC[C@@H](Nc2nc(N(C)C)c3ccccc3n2)CC1` [compound 873], the IC50 under setting [1] was above 200 nM.

Turning to `CCOC(=O)NC[C@H]1CC[C@@H](Nc2nc(N(C)C)c3ccccc3n2)CC1` [compound 874], under setting [1], the IC50 is above 200 nM.

As to `CN(C)c1nc(N[C@H]2CC[C@@H](CNC(=O)OCc3ccc([N+](=O)[O-])cc3)CC2)nc2ccccc12` [compound 875], the IC50 under setting [1] was in the range of 50 to 200 nM. Same read-out and setting: the same measure for `CN(C)c1nc(N[C@H]2CC[C@@H](CNC(=O)Oc3ccc4ccccc4c3)CC2)nc2ccccc12` [compound 876]: above 200 nM; for `C=CCOC(=O)NC[C@H]1CC[C@@H](Nc2nc(N(C)C)c3ccccc3n2)CC1` [compound 877]: above 200 nM; for `CN(C)c1nc(N[C@H]2CC[C@@H](CNC(=O)OCc3ccccc3)CC2)nc2ccccc12` [compound 878]: 50 to 200 nM.

Take `CN(C)c1nc(N[C@H]2CC[C@@H](CNC(=O)Oc3ccccc3)CC2)nc2ccccc12` [compound 879]: the IC50 under setting [1] was above 200 nM.

Turning to `CC1CCC(C(C)C)C(OC(=O)NCC2CCC(Nc3nc(N(C)C)c4ccccc4n3)CC2)C1` (centres unmarked) [compound 880], the IC50 under setting [1] is above 200 nM. Same read-out and setting: the value for `Cc1ccc(OC(=O)NC[C@H]2CC[C@@H](Nc3nc(N(C)C)c4ccccc4n3)CC2)cc1` [compound 881] was above 200 nM; that for `COC(=O)NC[C@H]1CC[C@@H](Nc2nc(N(C)C)c3ccccc3n2)CC1` [compound 882] was above 200 nM. The same measure, in the same setting: the value for `CN(C)c1nc(N[C@H]2CC[C@@H](CNC(=O)OCc3ccccc3Cl)CC2)nc2ccccc12` [compound 883] was 50 to 200 nM; that for `CN(C)c1nc(N[C@H]2CC[C@@H](CNC(=O)OCC3c4ccccc4-c4ccccc43)CC2)nc2ccccc12` [compound 884] was above 200 nM. As to `CN(C)c1nc(N[C@H]2CC[C@@H](CNC(=O)OCC(Cl)(Cl)Cl)CC2)nc2ccccc12` [compound 885], under setting [1], the IC50 was above 200 nM. As for “N-(2,5-dimethylphenyl)-N′-[(cis-4-{[4-(dimethylamino)quinazolin-2-yl]amino}cyclohexyl)methyl]urea [compound 480]”, the class is on record as 2 (Class 2: The value of percent of control at 10^−7 M was from 40% to 60% or the value of IC50 was from 50 nM to 200 nM.). Same read-out and setting: the value for “N-(3,5-difluorobenzyl)-N′-[(cis-4-{[4-(dimethylamino)quinazolin-2-yl]amino}cyclohexyl)methyl]urea [compound 524]” was 1 (Class 1: The value of percent of control at 10^−7 M was less than 40% or the value of IC50 was less than 50 nM.). For the compound “N-(cis-4-{[4-(dimethylamino)quinazolin-2-yl]amino}cyclohexyl)-6-(3,4,5-trimethoxyphenoxy)nicotinamide [Example 1067]”, under setting [2], the IC50 was 50 to 200 nM.

In the case of “N-(cis-4-{[4-(dimethylamino)quinazolin-2-yl]amino}cyclohexyl)-6-(3-methylphenoxy)nicotinamide [Example 1055]”, under setting [2], the IC50 was below 50 nM. In the case of “N-[3-(dimethylamino)propyl]-N′-[(cis-4-{[4-(dimethylamino)-quinazolin-2-yl]amino}cyclohexyl)methyl]thiourea [compound 807]”, under setting [1], the IC50 is above 200 nM.

“N-[(cis-4-{[4-(dimethylamino)quinazolin-2-yl]amino}cyclohexyl)methyl]-N′-(2,4,6-tribromophenyl)urea [compound 475]”: the class was 1 (Class 1: The value of percent of control at 10^−7 M was less than 40% or the value of IC50 was less than 50 nM.). The same measure, in the same setting: the value for “N-[(cis-4-{[4-(dimethylamino)quinazolin-2-yl]amino}cyclohexyl)methyl]-N′-(2-methoxy-4-nitrophenyl)urea [compound 507]” was 2 (Class 2: The value of percent of control at 10^−7 M was from 40% to 60% or the value of IC50 was from 50 nM to 200 nM.); that for “N-[(cis-4-{[4-(dimethylamino)quinazolin-2-yl]amino}cyclohexyl)methyl]-N′-(2-methoxy-5-nitrophenyl)urea [compound 508]” was 2 (Class 2: The value of percent of control at 10^−7 M was from 40% to 60% or the value of IC50 was from 50 nM to 200 nM.).
